{"source": "patent US20230263742A1", "about": "“A LIPID” (Stemirna Therapeutics Co., Ltd., priority 2021, published 2023)", "key": {"[1]": {"tested_on": "Balb/C mice", "assay": "In vivo Luc expression after intramuscular injection, compared with MC3 (Example 4)", "conditions": "5 μg Luc mRNA-LNP (DSPC) intramuscularly, Balb/C mice n=3, 6 hours; for in vivo Luc expressions (FIG. 2): compared with MC3", "procedure": "The mRNA nanoparticle compositions of SW-II-118, SW-120, and SW-121 were prepared according to the method provided in Example 3. The ratios of the lipids were 50:10:38.5:1.5 mol % for cationic lipid: DSPC: cholesterol: PEG-DMG. The cationic lipid MC3 was a current standard in the art. Accordingly, the standard MC3 formulation including 50 mol % MC3, 10 mol % DSPC, 38.5 mol % cholesterol, and 1.5 mol % PEG-DMG was used as a reference for this study.\n5 μg of Luc mRNA-LNP of MC3, SW-II-118, SW-II-120, or SW-II-121 was intramuscularly injected into Balb/C mice (n=3). 6 hours after the administration, the mice were injected intraperitoneally with 0.15 mg/kg […] substrate. 15 minutes after the injection of the substrate, the fluorescence signal intensity was tested under a small animal in vivo imaging instrument."}, "[2]": {"tested_on": "HepG2 cells", "assay": "In vitro cell Luc expression, HepG2", "format": "cell-based", "conditions": "100 ng Luc mRNA-LNP, 24 h", "procedure": "(§1) In vitro cell expression evaluation method: C2C12 cells, HepG2 cells, A20 cells were cultured, and 100,000 cells per well were plated on a 96-well plate. 100 ng of LNP samples were mixed with the cells and incubated for 24 hours (n=3), and then the expression was detected using luciferase quantitative kit 24 h after administration."}, "[3]": {"tested_on": "C2C12 cells", "assay": "In vitro cell Luc expression, C2C12", "format": "cell-based", "conditions": "100 ng Luc mRNA-LNP, 24 h", "procedure": "as §1"}}, "data": [{"smiles": "CCCCCCCCC(CCCCCCCC)OC(=O)CCCCCCCN(CCO)CCCCCCCC(=O)OCCc1ccc(CCCC)cc1", "note": "[SW-II-118]", "values": [{"measurement": "Luc expression in liver site compared with injection site (FIG. 2)", "setting": "[1]", "value": "higher than that in injection site"}, {"measurement": "in vivo Luc expressions (FIG. 2)", "setting": "[1]", "value": "higher than that of MC3"}, {"measurement": "HepG2 cell, in vitro expression", "setting": "[2]; phospholipid DAPC", "value": 6674}, {"measurement": "HepG2 cell, in vitro expression", "setting": "[2]; phospholipid DMPE", "value": 17608.5}, {"measurement": "HepG2 cell, in vitro expression", "setting": "[2]; phospholipid DOPE", "value": 17838.5}, {"measurement": "HepG2 cell, in vitro expression", "setting": "[2]; phospholipid DPPC", "value": 31083}, {"measurement": "HepG2 cell, in vitro expression", "setting": "[2]; phospholipid DPPE", "value": 86}, {"measurement": "HepG2 cell, in vitro expression", "setting": "[2]; phospholipid DSPC", "value": 11247.5}, {"measurement": "HepG2 cell, in vitro expression", "setting": "[2]; phospholipid DSPE", "value": 3053}, {"measurement": "C2C12 cell, in vitro expression", "setting": "[3]; phospholipid DAPC", "value": 32703.5}, {"measurement": "C2C12 cell, in vitro expression", "setting": "[3]; phospholipid DMPE", "value": 218015.5}, {"measurement": "C2C12 cell, in vitro expression", "setting": "[3]; phospholipid DOPE", "value": 300431.5}, {"measurement": "C2C12 cell, in vitro expression", "setting": "[3]; phospholipid DPPC", "value": 260091}, {"measurement": "C2C12 cell, in vitro expression", "setting": "[3]; phospholipid DPPE", "value": 1254.5}, {"measurement": "C2C12 cell, in vitro expression", "setting": "[3]; phospholipid DSPC", "value": 80658}, {"measurement": "C2C12 cell, in vitro expression", "setting": "[3]; phospholipid DSPE", "value": 46290.5}]}, {"smiles": "CCCCCCCCC(CCCCCCCC)OC(=O)CCCCCCCN(CCO)CCCCCCCC(=O)OCCc1ccc(CCCCCC)cc1", "note": "[SW-II-120]", "values": [{"measurement": "Luc expression in liver site compared with injection site (FIG. 2)", "setting": "[1]", "value": "higher than that in injection site"}, {"measurement": "in vivo Luc expressions (FIG. 2)", "setting": "[1]", "value": "higher than that of MC3"}, {"measurement": "HepG2 cell, in vitro expression", "setting": "[2]; phospholipid DAPC", "value": 4555.5}, {"measurement": "HepG2 cell, in vitro expression", "setting": "[2]; phospholipid DMPE", "value": 31448.5}, {"measurement": "HepG2 cell, in vitro expression", "setting": "[2]; phospholipid DOPE", "value": 83649.5}, {"measurement": "HepG2 cell, in vitro expression", "setting": "[2]; phospholipid DPPC", "value": 24199.5}, {"measurement": "HepG2 cell, in vitro expression", "setting": "[2]; phospholipid DPPE", "value": 57343}, {"measurement": "HepG2 cell, in vitro expression", "setting": "[2]; phospholipid DSPC", "value": 13068}, {"measurement": "HepG2 cell, in vitro expression", "setting": "[2]; phospholipid DSPE", "value": 2482}, {"measurement": "C2C12 cell, in vitro expression", "setting": "[3]; phospholipid DAPC", "value": 17847.5}, {"measurement": "C2C12 cell, in vitro expression", "setting": "[3]; phospholipid DMPE", "value": 228078.5}, {"measurement": "C2C12 cell, in vitro expression", "setting": "[3]; phospholipid DOPE", "value": 815187.5}, {"measurement": "C2C12 cell, in vitro expression", "setting": "[3]; phospholipid DPPC", "value": 147377.5}, {"measurement": "C2C12 cell, in vitro expression", "setting": "[3]; phospholipid DPPE", "value": 471290.5}, {"measurement": "C2C12 cell, in vitro expression", "setting": "[3]; phospholipid DSPC", "value": 44819}, {"measurement": "C2C12 cell, in vitro expression", "setting": "[3]; phospholipid DSPE", "value": 51132.5}]}, {"smiles": "CCCCCCCCC(CCCCCCCC)OC(=O)CCCCCCCN(CCO)CCCCCCCC(=O)OCCc1ccc(CCCCCCC)cc1", "note": "[SW-II-121]", "values": [{"measurement": "Luc expression in liver site compared with injection site (FIG. 2)", "setting": "[1]", "value": "higher than that in injection site"}, {"measurement": "in vivo Luc expressions (FIG. 2)", "setting": "[1]", "value": "higher than that of MC3"}, {"measurement": "HepG2 cell, in vitro expression", "setting": "[2]; phospholipid DAPC", "value": 3110}, {"measurement": "HepG2 cell, in vitro expression", "setting": "[2]; phospholipid DMPE", "value": 16466}, {"measurement": "HepG2 cell, in vitro expression", "setting": "[2]; phospholipid DOPE", "value": 42994.5}, {"measurement": "HepG2 cell, in vitro expression", "setting": "[2]; phospholipid DPPC", "value": 16064}, {"measurement": "HepG2 cell, in vitro expression", "setting": "[2]; phospholipid DPPE", "value": 25349.5}, {"measurement": "HepG2 cell, in vitro expression", "setting": "[2]; phospholipid DSPC", "value": 7932}, {"measurement": "HepG2 cell, in vitro expression", "setting": "[2]; phospholipid DSPE", "value": 1211.5}, {"measurement": "C2C12 cell, in vitro expression", "setting": "[3]; phospholipid DAPC", "value": 24183}, {"measurement": "C2C12 cell, in vitro expression", "setting": "[3]; phospholipid DMPE", "value": 219379.5}, {"measurement": "C2C12 cell, in vitro expression", "setting": "[3]; phospholipid DOPE", "value": 1003834.5}, {"measurement": "C2C12 cell, in vitro expression", "setting": "[3]; phospholipid DPPC", "value": 93988}, {"measurement": "C2C12 cell, in vitro expression", "setting": "[3]; phospholipid DPPE", "value": 246921}, {"measurement": "C2C12 cell, in vitro expression", "setting": "[3]; phospholipid DSPC", "value": 93333}, {"measurement": "C2C12 cell, in vitro expression", "setting": "[3]; phospholipid DSPE", "value": 41556.5}]}]}
